Source: US8293240B2, “Method of treating drug-resistant cancer” (The Regents of the University of Colorado, priority 2004, dated 2012)

Assays:
[1] = tested on: HL60 MDR tumor; assay: tumor volume of HL60 MDR tumor implanted in nude mice; type: in vivo; details: for tumor volume: 200 ug Etomoxir, 2.5 mM 2-Deoxy-D-glucose
Excerpt: Tumor implantation. Mice were purchased from the Animal Production Program of National Cancer Institute, Frederick, Md. The animals used were Athymic Ncr-nu/nu (strain code 01B74). HL60 MDR cells were harvested and reconstituted at 1 million cells per 100 microliters of phosphate buffered saline. One million tumor cells per injection site were implanted subcutaneously on two sites of the animal's back. Treatments began at exactly seven days post tumor implantation. Tumor size/volume was monitored twice weekly using measurement calipers, with the formula Tumor Volume=π×(short diameter)^2×(long diameter)/6.
Mice experiments with fatty acid metabolism and glucose metabolism inhibitors. Fatty acid metabolism inhibitors were exemplified by etomoxir at 200 micrograms/day. Glucose metabolism inhibitors were exemplified by 2-deoxy-D-glucose at 2.5 mM in 100 microliters daily. The combination was administered daily, etomoxir at 200 micrograms and 2-deoxy-D-glucose at 2.5 mM in 100 microliters. All drugs were administered intra-peritoneally. Fluorouracil, at 20 mg per kilogram mouse, was injected intra-peritoneally once a week
HL60 MDR human leukemia cells were cultured and implanted in nude mice as described above under “Materials and Methods”. The mice were given 200 ug of Etomoxir, 2.5 mM 2-Deoxy-D-glucose, or both 200 ug of Etomoxir and 2.5 mM 2-Deoxy-D-glucose given daily by IP injection. Treatment began exactly one week after tumor implantation.
Mice were purchased from National Cancer Institute, Animal Production Program (Frederick, Md.). The animals used were Athymic Ncr-nu/nu (Strain code 01B74). HL60 MDR cells were harvested and reconstituted at 1 million cells per 100 microliters of phosphate buffered saline. One million tumor cells/per injection site were implanted subcutaneously on two sites of the animal's back. Treatments began at exactly seven days post tumor implantation. Tumor size/volume was monitored twice weekly using measurement calipers with the formula for Tumor Volume=π(short diameter)^2(long diameter)/(divided by )6. […]

[2] = tested on: RD cells (rhabdomyosarcoma cells-not drug resistant); assay: percent death of RD cells (flow cytometry, live versus dead); type: cell-based
Protocol: The cells were cultured at a concentration of 0.5 to 1 million cells per ml. Cells were untreated or treated with or 2-deoxy-D-glucose and/or etomoxir and/or antibodies to UCP2 and used at dilutions or concentrations as indicated on the figure. The cells were cultured in the presence or absence of etomoxir at 100 micrograms/ml for 24 hours followed by treatment with antibody as indicated for an additional 24 or 48 hours (i.e. totals of 48 hours or 72 hours respectively). Cells were harvested and analyzed by flow cytometry. Each dot on the dot plot represents one cell. Five thousand cells were assessed for forward scatter (FS), as a function of cell size, versus side scatter (SS), as a function of cellular granularity. The upper elipse represents live cells by these criterion and the lower elipse in each dot plot represents the dead cells.
Referring to FIGS. 29 and 30, RD cells (rhabdomyosarcoma cells-not drug resistant), cultured as described above under “Materials and Methods” were untreated or treated with etomoxir, with 2-deoxy-D-glucose, or with a combination of etomoxir and 2-deoxy-D-glucose, at concentrations indicated in FIG. 29 for 24 hours. Cells were harvested and analyzed by flow cytometry.
Referring to FIGS. 33 and 34, RD cells, cultured as described in Example 22, were untreated or treated with etomoxir, with 2-deoxy-D-glucose, or with a combination of etomoxir and 2-deoxy-D-glucose, at concentrations indicated in FIG. 33 for 48 hours. Cells were harvested and analyzed by flow cytometry.
Referring to FIGS. 37 and 38, RD cells, cultured as described in Example 22, were treated with anti-UCP2 antibody and otherwise untreated or treated simultaneously with etomoxir, 2-deoxy-D-glucose, or both, at concentrations indicated in FIG. 37 for 48 hours. Cells were harvested and analyzed by flow cytometry.

[3] = tested on: HL60 MDR human leukemia cells; assay: percent death of HL60 MDR cells (flow cytometry, live versus dead); type: cell-based
Protocol: Dot plots as a function of live versus dead cells. The cells were cultured at a concentration of 0.5 to 1 million cells per ml. Cells were untreated or treated with or 2-deoxy-D-glucose and/or etomoxir and/or antibodies to UCP2 and used at dilutions or concentrations as indicated on the figure. The cells were cultured in the presence or absence of etomoxir at 100 micrograms/ml for 24 hours followed by treatment with antibody as indicated for an additional 24 or 48 hours (i.e. totals of 48 hours or 72 hours respectively). Cells were harvested and analyzed by flow cytometry. Each dot on the dot plot represents one cell. Five thousand cells were assessed for forward scatter (FS), as a function of cell size, versus side scatter (SS), as a function of cellular granularity. The upper elipse represents live cells by these criterion and the lower elipse in each dot plot represents the dead cells.
HL60 MDR human leukemia cells were cultured as described above under “Materials and Methods”. Cells were untreated or treated with etomoxir, with 2-deoxy-D-glucose, or with a combination of etomoxir and 2-deoxy-D-glucose, at concentrations indicated in FIG. 27 for 24 hours. Cells were harvested and analyzed by flow cytometry.
Referring to FIGS. 31 and 32, HL60 MDR cells, cultured as described in Example 21, were untreated or treated with etomoxir, with 2-deoxy-D-glucose, or with a combination of etomoxir and 2-deoxy-D-glucose, at concentrations indicated in FIG. 31 for 48 hours. Cells were harvested and analyzed by flow cytometry.
Referring to FIGS. 35 and 36, HL60 MDR cells, cultured as described in Example 21, were treated with anti-UCP2 antibody and otherwise untreated or treated simultaneously with etomoxir, 2-deoxy-D-glucose, or both, at concentrations indicated in FIG. 35 for 48 hours. Cells were harvested and analyzed by flow cytometry.

[4] = 5-FU that is taken up by the cell; cited from earlier work
[5] = tested on: L1210; assay: % death of L1210 cells treated or not with cerulenin (flow cytometry); type: cell-based; details: L1210, 25 ug/mL Cerulenin
Protocol: (§1) Statistical Analysis, Percents, and Geometric Mean Values Percents. Gating is a tool provided by Cell Quest software and allows for the analysis of a certain population of cells. Gating around both the live and dead cell populations gave a percent of the cell numbers that was in each population. After the gates were drawn, a percent value of dead cells was calculated by taking the number of dead cells divided by the number of total cells and multiplying by one hundred.
(§2) This example illustrates an embodiment of the invention, where multi-drug resistant cancer cells were exposed to compositions of the invention. Analysis of the cells was performed using flow cytometry. The flow cytometry experiments were performed as follows. The cells were harvested, counted, and resuspended as described above. […] The cells were incubated with 1 mM DCF-DA for 20 minutes, washed twice in PBS containing 5% fetal calf serum and analyzed using flow cytometry. The mitochondrial membrane potential was assessed using MitoTracker Red (CM-H2XROS, Molecular Probes, Eugene, Oreg.). […] The data was acquired on a Coulter Elite Epics or Excel flow cytometer (Coulter, Hialeah, Fla.) and analyzed with CellQuest software, (Becton Dickinson, San Jose, Calif.). […] Each sample population was classified for cell size (forward scatter) and complexity (side scatter), gated on a population of interest and evaluated using 40,000 cells. […]

[6] = tested on: B16F1 melanoma cells; assay: mice injected with B16F1 melanoma cells exposed or not to cerulenin; type: in vivo; details: for tumor observation and activity of mouse: B16F1 10^6 cells treated w/25 ug/ml cerulenin 5.0 hrs before injection
Excerpt: Highly carcinogenic B16F1 melanoma cells were either exposed (“treated”) or not exposed to cerulenin, then injected into male mice.

[7] = tested on: HL60 MDR; assay: % death / microscopy of HL60 MDR cells treated or not with cerulenin; type: cell-based, human; details: for % Death: 25 ug/mL Cerulenin
Protocol: as §1
(§3) This example illustrates an embodiment of the invention, where multi-drug resistant cancer cells were exposed to compositions of the invention. Analysis of the cells was performed using flow cytometry. The flow cytometry experiments were performed as follows. The cells were harvested, counted, and resuspended as described above. For DNA staining, the cells were washed and resuspended in ice-cold PBS and fixed by the dropwise addition of 95% ethanol. The cells were then incubated for 30 minutes on ice, washed, and resuspended in PBS containing 1% formaldehyde and 0.01% Tween. The cells were incubated with 50 units of DNAse and washed with PBS containing 5% DNAse. The cells were then incubated with anti DNA Fab (166, kind gift of Dr. Susan Wallace, University of Vermont), then washed and stained with a fluorescein conjugated second step anti-mouse immunoglobulin. The cells were then washed and resuspended in PBS/3% BSA/1% formaldehyde. The cells were stained for intracellular H2O2 using 6-carboxy-2′,7′-dichlorodihydrofluorescein diacetate (DCF-DA, Molecular Probes, Eugene, Oreg.). The cells were incubated with 1 mM DCF-DA for 20 minutes, washed twice in PBS containing 5% fetal calf serum and analyzed using flow cytometry. The mitochondrial membrane potential was assessed using MitoTracker Red (CM-H2XROS, Molecular Probes, Eugene, Oreg.). The cells were resuspended in warm (37° C.) PBS containing a final concentration of 0.5 micromolar of dye. The cells were then incubated for 30 minutes, pelleted, and resuspended in prewarmed medium for analysis. The data was acquired on a Coulter Elite Epics or Excel flow cytometer (Coulter, Hialeah, Fla.) and analyzed with CellQuest software, (Becton Dickinson, San Jose, Calif.). […] Each sample population was classified for cell size (forward scatter) and complexity (side scatter), gated on a population of interest and evaluated using 40,000 cells. Each figure describing flow cytometric data represents one of at least four replicate experiments. […]
(§4) The flow cytometry experiments were performed as follows. Once the samples were prepared and transferred into flow cytometric tubes, the samples were analyzed on a Becton/Dickinson Flow Cytometer. […] Statistical analysis, percents, and geometric mean values percents were calculated as described above. […]

[8] = tested on: L1210 DDP; assay: % death of L1210 DDP cells treated or not with cerulenin (flow cytometry); type: cell-based; details: for % Death: 25 ug/mL Cerulenin
Protocol: as §1
as §2, with “above. For DNA staining, the cells were washed and resuspended in ice-cold PBS and fixed by the dropwise addition of 95% ethanol. The cells were then incubated for 30 minutes on ice, washed, and resuspended in PBS containing 1% formaldehyde and 0.01% Tween. The cells were incubated with 50 units of DNAse and washed with PBS containing 5% DNAse.” for “above.”
(§5) The flow cytometry experiments were performed as follows. Once the samples were prepared and transferred into flow cytometric tubes, the samples were analyzed on a Becton/Dickinson Flow Cytometer. […] Statistical analysis, percents, and geometric mean values percents were calculated as described above.

[9] = tested on: B16F1; assay: % death of B16F1 cells treated or not with cerulenin (flow cytometry); type: cell-based, mouse; details: B16F1, 25 ug/mL Cerulenin
Protocol: as §1, §3, §5

[10] = tested on: HL60; assay: % death / microscopy of HL60 cells treated or not with cerulenin; type: cell-based, human; details: for % Death: HL60, 25 ug/mL Cerulenin
Protocol: as §1
as §2, with “above. For DNA staining, the cells were washed and resuspended in ice-cold PBS and fixed by the dropwise addition of 95% ethanol. The cells were then incubated for 30 minutes on ice, washed, and resuspended in PBS containing 1% formaldehyde and 0.01% Tween. The cells were incubated with 50 units of DNAse and washed with PBS containing 5% DNAse.” for “above.”
as §4

SMILES: OC[C@H]1O[C@H](O)CC(O)[C@@H]1O (stereo partly drawn) [2-deoxy-D-glucose]
- tumor volume ([1]; Day 7, daily IP from one week after implantation): 35 mm^3
- tumor volume ([1]; Day 9, daily IP): 51.56 mm^3
- tumor volume ([1]; Day 15, daily IP): 158.55 mm^3
- tumor volume ([1]; Day 21, daily IP): 1,181.61 mm^3
- effect on tumor growth ([1]; HL60 MDR in nude mice, 21 day period, single agent): increase in tumor growth
- percent of cell deaths ([2]; RD cells after 24 hours): 46%
- percent of cell deaths ([2]; RD cells after 48 hours): 63%
- percent of cell deaths ([3]; HL60 MDR cells after 24 hours): 16%
- percent of cell deaths ([3]; HL60 MDR cells after 48 hours): 38%

SMILES: O=c1[nH]cc(F)c(=O)[nH]1 [5-FU, 5-Fluorouracil]
- half-life in vivo [4]: about 18 minutes

SMILES: C/C=C/C/C=C/CCC(=O)[C@H]1O[C@H]1C(N)=O [cerulenin]
- % Death ([5]; 7.0 Hours): 27%
- % Death ([5]; 24 Hours): 89%
- tumor observation and activity of mouse ([6]; Day 9): Day 9 no visible sign of tumors - very active
- tumor observation and activity of mouse ([6]; Day 12): Day 12 no visible tumors - very active (FIG. 5D)
- tumor observation and activity of mouse ([6]; Day 13): Day 13 no visible tumors - very active
- development of lethal cancers ([6]; mice exposed to melanoma cells treated with cerulenin, during the experiment): did not develop lethal cancers
- cell death in microscopy images ([7]; HL60 MDR cells treated with cerulenin, FIGS. 4E and 4F): large numbers of cell death
- % Death ([7]; HL60 MDR, 4 Hours (Table 1)): 9.6%
- % Death ([7]; HL60 MDR, .0 Hours (Table 1)): 3%
- cell death compared to control and non-multidrug resistant cancer cells ([7]; HL60 MDR, after treatment with cerulenin): greater amounts of cell death
- % Death ([8]; 7.0 Hours): 14%
- % Death ([8]; 24 Hours): 92%
- cell death compared to control and non-multidrug resistant cancer cells ([8]; after treatment with cerulenin): greater amounts of cell death
- % Death ([9]; 4 Hours (Table 1)): 0%
- % Death ([9]; 5.0 Hours (Table 2)): 67%
- % Death ([9]; 24 hours (Table 2)): 72%
- % Death ([9]; .0 Hours (Table 1)): 1%
- % Death ([10]; 4 Hours (Table 1)): 4%
- % Death ([10]; .0 Hours (Table 1)): 1%
- cell survival in microscopy images ([10]; HL60 cells treated with cerulenin, FIG. 4C): large numbers of the cells survived
